From article PMC8473641, “Dual blocking of PI3K and mTOR signaling by DHW‐221, a novel benzimidazole derivative, exerts antitumor activity in human non‐small cell lung cancer” (Clinical and Translational Medicine, 2021)
Where two headings read alike, the source gives them in different places.

Experiments:
[1] = system: HCC827 xenograft; experiment: HCC827 xenograft models (subcutaneous and orthotopic) in nude mice; format: in vivo
Description: (§1) To investigate the effect of DHW‐221 in vitro, SRB assay was performed. […] Additionally, the long‐term efficacy of DHW‐221 was evaluated and confirmed a better antiproliferation role than NVP‐BEZ235 (Figure 2C–E). Figure 2F investigates the concentration‐dependently inhibition of DHW‐221 on protein synthesis in cells. HCC827 xenograft models in both subcutaneous and orthotopic were used to further evaluate its antitumor potency in vivo. […] Moreover, DHW‐221 treatment could ameliorate the burden of orthotopic carcinoma to nude mice (Figure 2O, P).
(§2) FIGURE 2 DHW‐221 inhibits the viability of NSCLC cells both in vitro and in vivo. (A) The structure of compound DHW‐221. (B) The viability of HCC827, NCI‐H292, NCI‐H1993, and A549 cells treated with various concentrations of DHW‐221 at 24, 48, and 72 h was determined by sulforhodamine B (SRB) assay. (C–E) The growth‐inhibitory effect of DHW‐221 on HCC827 and NCI‐H1993 cells was measured using a colony formation assay (C), a lactate dehydrogenase (LDH) assay (D), and a tumor sphere formation assay (E). […] (F) OPP‐labeled protein content was detected by luciferase plate. (G) Tumor‐burdened nude mice and resected tumor samples from subcutaneous xenografts after 21 days (n = 6). (H) Subcutaneous tumor volume was measured daily with a caliper. (I) Mean tumor weight was measured to subcutaneous xenografts at the end of the experiment. (J) Subcutaneous xenografts nude mice were weighed daily on an electronic scale. (K) The index of each main organ of subcutaneous xenografts nude mice. (L) Liver and kidney function indexes subcutaneous xenografts nude mice were evaluated to predict drug toxicity. (M) Hematoxylin and eosin (H&E) staining of the liver, spleen, and kidney from subcutaneous xenografts nude mice; scale bar = 100 µm. (N) Photographs of NSCLC orthotopic tumor samples, n = 6. (O) Orthotopic xenografts nude mice were weighed daily on an electronic scale. (P) The index of lung organ was measured from orthotopic xenografts nude mice. Mean ± SD; *p < 0.05, **p < 0.01, ***p < 0.001 versus the control (model). […]

[2] = system: HCC827; experiment: SRB assay HCC827; format: cell-based; details: Homo sapiens, mean±SD
Description: as §1, §2

[3] = system: NCI-H292; experiment: SRB assay NCI-H292; format: cell-based; details: Homo sapiens, mean±SD
Description: as §1, §2

[4] = system: A549; experiment: SRB assay A549; format: cell-based; details: Homo sapiens, mean±SD
Description: as §1, §2

[5] = Pharmacokinetics in mice; format: in vivo; details: mouse, plasma, 10 mg/kg; for MRT inf: read-out: MRTinf_obs
Description: ^a Values are the average of three runs. Vehicle: DMSO:ethanol:saline=3:100:897. ^b Dose:10 mg/kg. T1/2, half-life; Cmax, maximum concentration; Tmax, time of maximum concentration; AUCall, area under the plasma concentration time curve.

[6] = system: NCI-H1993; experiment: SRB assay NCI-H1993; format: cell-based; details: Homo sapiens, mean±SD
Description: as §1, §2

[7] = system: Notch2 and Notch3; experiment: Western blot of Notch pathway proteins; format: cell-based, human; details: HCC827 and NCI-H1993 cells, 48 h
Description: The PI3K signaling pathway is interrelated with Notch. However, the regulatory relationship between Notch and PI3K/AKT/mTOR pathways is still unclear. Next, we investigated the effects of DHW-221 on Notch and its downstream critical target Hes-1.
Figure S2. DHW-221 blocks the notch pathway. HCC827 and NCI-H1993 cells were treated with DHW-221 or NVP-BEZ235 for 48 h following which western blotting was performed on the cell lysates. Mean ± SD; **p < 0.01, ***p < 0.001 vs. the control. One-way analysis of variance followed by Tukey’s post hoc multiple-comparisons test.

[8] = system: NSCLC cells; experiment: Cell cycle analysis by flow cytometry; format: cell-based, human; details: 48 h, concentration-dependently
From the text: The PI3K/AKT/mTOR pathway is strongly linked to the regulation of cell cycle progression and apoptosis during cell proliferation.[6], [7] […] Meanwhile, the expression of endogenous cyclins in G0/G1 phase was detected by western blot, confirming that DHW‐221 regulated the cell cycle (Figure 3B). Apoptosis is crucial for anticancer drugs to kill cancer cells.[7] […] Finally, the proapoptotic effects of DHW‐221 were confirmed by western blot analysis of apoptosis‐related protein expression both in vitro and in vivo (Figure 3G–I).
FIGURE 3 DHW‐221 induces cell cycle arrest and cell apoptosis in NSCLC both in vitro and in vivo. (A) DHW‐221 and NVP‐BEZ235 were detected by flow cytometry for 48 h. The raw histogram is shown at the top and the quantification of specific cell cycle stages at the bottom. (B) Western blot analysis of the expression levels of cell cycle‐related proteins in HCC827 and NCI‐H1993 cells after 48 h of treatment with the specified concentrations of DHW‐221 and NVP‐BEZ235. (C) Hoechst 33342 staining results. Apoptotic cells are bright blue; scale bar, 50 µm. […] Green fluorescence indicates decreased mitochondrial membrane potential, red fluorescence indicates normal mitochondrial membrane potential; scale bar, 100 µm. […] (G–I) The expression levels of apoptosis‐related proteins in NSCLC cells (G, H) and tumor tissues (I) were detected by western blot. […]

[9] = system: normal cell lines (HL7702, HUVEC, and MRC-5); experiment: SRB cytotoxicity toward normal cell lines; format: cell-based; details: MRC-5, 72 h
Description: as §1
Figure S3. The effect of DHW-221 on normal cell lines. SRB assay was used to determine the cytotoxicity of DHW-221 toward normal cell lines (HL7702, HUVEC, and MRC-5) at 72 h. Mean ± SD; **p < 0.01, ***p < 0.001 vs. the control. One-way analysis of variance followed by Tukey’s post hoc multiple-comparisons test.

[10] = target: mTOR kinase (Homo sapiens, UniProt P42345); experiment: mTOR kinase assay in vitro; format: biochemical
[11] = system: p-mTOR; experiment: Western blot of p-AKT and p-mTOR in PI3K knocked down HCC827 cells; format: cell-based, human
From the text: First, we identified potential targets of DHW‐221. […] For mTOR, DHW‐221 precisely overlapped with it and formed two more hydrogen bonds (Val2240 and Thr2245) than NVP‐BEZ235 (Figure 1A). […] Additionally, we knocked down PI3K in HCC827 cells (Figure 1C) and compared how DHW‐221, NVP‐BEZ235, and wortmannin (a PI3K inhibitor) treatments affected AKT and mTOR protein phosphorylation levels. […] Finally, western blot and immunofluorescence analysis confirmed the effect of DHW‐221 on the expression of PI3K/AKT/mTOR pathway‐related proteins both in vitro and in vivo (Figure 1E–G). […] The effects of DHW‐221 on notch pathway are provided in Result S1.
FIGURE 1 DHW‐221 is a PI3K/mTOR dual‐target inhibitor and inhibits the PI3K/AKT/mTOR signaling pathway. (A) Predicted binding modes for DHW‐221 (blue stick) with PI3Kα (PDB code: 4JPS) and mTOR (PDB code: 4JT6). Hydrogen bonds are shown as green dashed lines. Key residues for DHW‐221 and BEZ235 interaction are highlighted. (B) A cellular thermal shift assay (CETSA) and an isothermal dose–response fingerprinting (ITDRF)cetsa were used to evaluate the thermal stability of DHW‐221 bound to PI3Kα/β or mTOR. (C, D) The expression of PI3K, p‐AKT, and p‐mTOR in transfected NSCLC cells was assessed by western blot. […]

For `COc1ncc(-c2ccc3ncn(-c4ccc(OCCO)cc4)c3c2)cc1NS(=O)(=O)c1ccc(F)cc1F` [DHW-221], the tumor growth ([1]; HCC827 subcutaneous and orthotopic xenografts, nude mice) was “apparently inhibited tumor growth”, the alanine aminotransferase concentration ([1]; subcutaneous xenograft nude mice, high dose) was “increased at high dose” and the body weight ([1]; xenograft nude mice) was “without affecting body weight”. It also gave an IC50 ([2]; 24h, n=3, read-out: IC50 HCC827 24h) of 8330 ± 1450 nM, an IC50 ([2]; 48h, n=3, read-out: IC50 HCC827 48h) of 970 ± 127 nM and an IC50 ([2]; 72h, n=3, read-out: IC50 HCC827 72h) of 32 ± 18 nM. It also gave an IC50 ([3]; 24h, n=3, read-out: IC50 NCI-H292 24h) of 7320 ± 2420 nM, an IC50 ([3]; 48h, n=3, read-out: IC50 NCI-H292 48h) of 253 ± 149 nM and an IC50 ([3]; 72h, n=3, read-out: IC50 NCI-H292 72h) of 26 ± 3 nM. It also gave an IC50 ([4]; 24h, n=3, read-out: IC50 A549 24h) of 7140 ± 1240 nM, an IC50 ([4]; 48h, n=3, read-out: IC50 A549 48h) of 893 ± 288 nM and an IC50 ([4]; 72h, n=3, read-out: IC50 A549 72h) of 372 ± 86 nM. For the same compound, the AUC ([5]; iv) was 262 ± 75.7 µg·h/mL, the Cmax ([5]; iv) was 67400 ± 8540 ng/mL and the Tmax ([5]; iv) was 0.083 h. It also gave a half-life ([5]; iv) of 3.7 ± 0.2 h, an MRT inf ([5]; iv) of 4.7 ± 0.3 h and a bioavailability ([5]; po vs iv, read-out: F (oral bioavailability)) of 67.5%. For the same compound, the AUC ([5]; po) was 176 ± 51.1 µg·h/mL, the Cmax ([5]; po) was 11800 ± 3400 ng/mL and the Tmax ([5]; po) was 3 ± 1.7 h. For the same compound, the half-life ([5]; po) was 7.1 ± 0.9 h, the MRT inf ([5]; po) was 11.4 ± 0.3 h and the IC50 ([6]; 24h, n=3, read-out: IC50 NCI-H1993 24h) was 3230 ± 1290 nM. The IC50 ([6]; 48h, n=3, read-out: IC50 NCI-H1993 48h) was 762 ± 83 nM, the IC50 ([6]; 72h, n=3, read-out: IC50 NCI-H1993 72h) was 117 ± 54 nM and the “expression of Notch2 and Notch3” value [7] was “had no effect”. The cell cycle arrest [8] was “arrested at G0/G1 phase”, the “effect on normal cells” value [9] was “without affecting the normal cells” and the IC50 [10] was 3.9 nM. The “p-mTOR expression compared with wortmannin” value [11] was “significantly decreased”.
For `Cn1c(=O)n(-c2ccc(C(C)(C)C#N)cc2)c2c3cc(-c4cnc5ccccc5c4)ccc3ncc21` [NVP‐BEZ235, reference compound], the “p-mTOR expression compared with wortmannin” value [11] was “significantly decreased”.
